Experimental data reported in patent publication US20020183313A1, “1,4-benzodiazepinones and their uses as CCK antagonists” (Fujisawa Pharmaceutical Co., Ltd., priority 1996, published 2002).

Compared with CCC1=NC(NC(=O)Nc2cccc(C)c2)C(=O)N(CC(=O)N2CC3CCC(CC3)C2)c2ccccc21 (racemic), COCC1=NC(NC(=O)Nc2cccc(C)c2)C(=O)N(CC(=O)N2CC3CCC(CC3)C2)c2c(C)cccc21 (racemic) is higher in melting point: 115 to 120 °C for the first, 178.1 to 182.1 °C for the second.

Compared with CC1=NC(NC(=O)Nc2cccc(C)c2)C(=O)N(CC(=O)N(CCO)CCO)c2c(C)cccc21 (racemic) [48-3(16), N-[(3RS)-2,3-Dihydro-1-(N,N-bis-(2-hydroxyethyl)amino)-carbonylmethyl-5,9-dimethyl-2-oxo-1H-1,4-benzodiazepin-3-yl]-N′-(3-methylphenyl)urea], CCC(=O)CN1C(=O)C(NC(=O)Nc2cccc(C)c2)N=C(C)c2cccc(C)c21 (racemic) [Example 44, N-[(3RS)-2,3-Dihydro-1-ethylcarbonylmethyl-5,9-dimethyl-2-oxo-1H-1,4-benzodiazepin-3-yl]-N′-(3-methylphenyl)urea] is lower in melting point: 160.5 to 161.1 °C for the first, 125.1 to 127.5 °C for the second.

Cc1cccc(NC(=O)NC2N=C(c3ccccc3F)c3cccc(C)c3N(CC(=O)c3ccccc3C)C2=O)c1 (racemic) and Cc1cccc2c1N(CC(=O)c1ccccc1[N+](=O)[O-])C(=O)C(NC(=O)Nc1cccc(-c3nnn[nH]3)c1)N=C2c1ccccc1F (racemic) cannot be ordered by melting point: 190.2 to 196.2 °C for the first, 192.2 to 197.1 °C for the second.

First: Cc1cccc2c1N(CC(=O)N1CC3CCC(CC3)C1)C(=O)C(NC(=O)Nc1cccc(C=NO)c1)N=C2c1ccccc1F (racemic)
Second: Cc1cccc(NC(=O)NC2N=C(c3ccccc3F)c3cccc(C(C)C)c3N(CC(=O)N3CC4CCC(CC4)C3)C2=O)c1 (racemic)
The melting point of the first is higher: 196 to 199 °C for the first, 183.3 to 186.8 °C for the second.

First: Cc1cccc(NC(=O)NC2N=C(C=O)c3cccc(C)c3N(CC(=O)N3CCCCCCC3)C2=O)c1 (racemic) [71-3(2), N-[(3RS)-1-(azacyclooctan-1-yl)carbonylmethyl-2,3-dihydro-5-formyl-9-methyl-2-oxo-1H-1,4-benzodiazepin-3-yl]-N′-(3-methylphenyl)urea]
Second: CCOC(=O)C=CC1=NC(NC(=O)Nc2cccc(C)c2)C(=O)N(CC(=O)N2CCCCCCC2)c2c(C)cccc21 (racemic) [75(1)-1, N-[(3RS)-1-(azacyclooctan-1-yl)carbonylmethyl-2,3-dihydro-5-((EZ)-2-(ethoxycarbonyl)ethenyl)-9-methyl-2-oxo-1H-1,4-benzodiazepin-3-yl]-N′-(3-methylphenyl)urea]
The melting point of the first is lower: 137.9 to 141 °C for the first, 175.2 to 177.7 °C for the second.

Compared with Cc1cccc2c1N(CC(=O)c1cccc([N+](=O)[O-])c1)C(=O)C(NC(=O)Nc1cccc(-c3nnn[nH]3)c1)N=C2c1ccccc1F (racemic), O=C(Nc1cccc(-c2nnn[nH]2)c1)NC1N=C(c2ccccc2F)c2cccc(Cl)c2N(CC(=O)N2CC3CCC(CC3)C2)C1=O (racemic) is lower in melting point: 194.4 to 198.1 °C for the first, 172 to 180.5 °C for the second.

First: CSc1cccc(NC(=O)NC2N=C(C)c3cccc(C)c3N(CC(=O)N3CC4CCC(CC4)C3)C2=O)c1 (racemic)
Second: CC1=NC(NC(=O)Nc2cccc(C)c2)C(=O)N(CC(=O)N2CC3CCC(CC3)C2)c2c(C)cccc21 (racemic)
The melting point of the first is higher: 237.2 to 238.5 °C for the first, 176.9 to 179.1 °C for the second.

Compared with CC1=NC(NC(=O)Nc2cccc(Br)c2)C(=O)N(CC(=O)N2CC3CCC(CC3)C2)c2c(C)cccc21 (racemic), CC1=NC(NC(=O)Nc2cccc(C)n2)C(=O)N(CC(=O)N2CC3CCC(CC3)C2)c2c(C)cccc21 (racemic) is lower in melting point: 168.1 to 171.1 °C for the first, 150.8 to 152.1 °C for the second.

First: CC(=O)c1sccc1CN1C(=O)C(NC(=O)Nc2cccc(C)c2)N=C(C)c2ccccc21 (racemic) [8(3), N-[(3RS)-1-(2-acetylthiophen-3-yl)methyl-2,3-dihydro-5-methyl-2-oxo-1H-1,4-benzodiazepin-3-yl]-N′-(3-methylphenyl)urea]
Second: CCOC(=O)CN1C(=O)C(NC(=O)Nc2cccc(C)c2)N=C(C)c2cccc(C)c21 (racemic) [Example 48-1, N-[(3RS)-2,3-Dihydro-1-ethoxycarbonylmethyl-5,9-dimethyl-2-oxo-1H-1,4-benzodiazepin-3-yl]-N′-(3-methylphenyl)urea]
The melting point of the first is lower: 215 to 219 °C for the first, 229.7 to 231 °C for the second.

Compared with CC1=NC(NC(=O)Nc2cccc(C)c2)C(=O)N(CC(=O)C(C)(C)C)c2c(C)cccc21 (racemic) [Example 41, N-[(3RS)-2,3-Dihydro-5,9-dimethyl-1-tert-butylcarbonylmethyl-2-oxo-1H-1,4-benzodiazepin-3-yl]-N′-(3-methylphenyl)urea], CC1=NC(NC(=O)Nc2cccc(C)c2)C(=O)N(CC(=O)NC(C)(C)C)c2c(C)cccc21 (racemic) [48-3(11), N-[(3RS)-2,3-Dihydro-5,9-dimethyl-1-(N-tert-butylamino-carbonylmethyl)-2-oxo-1H-1,4-benzodiazepin-3-yl]-N′-(3-methylphenyl)urea] is higher in melting point: 179.6 to 181.2 °C for the first, 243.4 to 244.4 °C for the second.

First: CC1=NC(NC(=O)Nc2cccc(C)c2)C(=O)N(CC(=O)N2CCC(O)(c3ccccc3)CC2)c2c(C)cccc21 (racemic) [48-3(6), N-[(3RS)-1-(4-Hydroxy-4-phenylpiperidin-1-yl)carbonylmethyl-5,9-dimethyl-2,3-dihydro-2-oxo-1H-1,4-benzodiazepin-3-yl]-N′-(3-methylphenyl)urea]
Second: Cc1cccc(NC(=O)NC2N=C(CC(C)C)c3cccc(C)c3N(CC(=O)N3CCCCCCC3)C2=O)c1 (racemic) [Example 69, N-[(3RS)-1-(Azacyclooctan-1-yl)carbonylmethyl-2,3-dihydro-5-isobutyl-9-methyl-2-oxo-1H-1,4-benzodiazepin-3-yl]-N′-(3-methylphenyl)urea]
The melting point of the first is higher: 163.2 to 164.9 °C for the first, 131.6 to 133.4 °C for the second.

First: CC1=NC(NC(=O)Nc2cccc(C)c2)C(=O)N(CC(=O)N(CC(C)C)CC(C)C)c2c(C)cccc21 (racemic) [48-3(15), N-[(3 RS)-2,3-Dihydro-1-(N,N-diisobutylamino)carbonylmethyl-5,9-dimethyl-2-oxo-1H-1,4-benzodiazepin-3-yl]-N′-(3-methylphenyl)urea]
Second: Cc1cccc(NC(=O)NC2N=C(C3CCCCC3)c3cccc(C)c3N(CC(=O)C3CCCCC3)C2=O)c1 (racemic) [Example 54, N-[(3RS)-5-Cyclohexyl-1-cyclohexylcarbonylmethyl-2,3-dihydro-9-methyl-2-oxo-1H-1,4-benzodiazepin-3-yl]-N′-(3-methylphenyl)urea]
The melting point of the first is higher: 226.9 to 228.1 °C for the first, 159.3 to 169.6 °C for the second.

Cc1cccc(NC(=O)NC2N=C(C3CCCCC3)c3cccc(C)c3N(CC(=O)N3CCCCCCC3)C2=O)c1 (racemic) [Example 70, N-[(3RS)-1-(Azacyclooctan-1-yl)carbonylmethyl-5-cyclohexyl-2,3-dihydro-9-methyl-2-oxo-1H-1,4-benzodiazepin-3-yl]-N′-(3-methylphenyl)urea] gave a melting point of 153.6 to 155.3 °C.

In the case of Cc1cccc2c1N(CC(=O)C13CC4CC(CC(C4)C1)C3)C(=O)C(NC(=O)Nc1cccc(-c3nnn[nH]3)c1)N=C2c1ccccc1F (racemic), the melting point is reported as 195 to 218.4 °C (dec.).
For Cc1cccc2c1N(CC(=O)OC(C)(C)C)C(=O)C(NC(=O)Nc1cccc(-c3nnn[nH]3)c1)N=C2c1ccccc1F (racemic), the melting point was 151.4 to 174.2 °C (dec.).
